Measurements published in paper PMC9611758, “Bioactive Platinum(IV) Complexes Incorporating Halogenated Phenylacetates” (Molecules, 2022).
Several values for one entry are separate records, joined by “and”; a condition that tells them apart may be missing. Identical values can stand only once. Entries after “also recorded” stand apart in the source; their conditions may differ. Like-named read-outs stand apart in the source and are kept apart here.

Key:
[1] = system: MIA pancreas; assay: MTT growth inhibition assay, MIA; format: cell-based, human; settings: 72 h
[2] = system: Du145 prostate; assay: MTT growth inhibition assay, Du145; format: cell-based, human; settings: for GI50: MTT assay, 72 h
[3] = system: BE2-C neuroblastoma; assay: MTT growth inhibition assay, BE2-C; format: cell-based, human; settings: 72 h
[4] = system: panel of cell lines; assay: MTT growth inhibition assay, whole panel of cell lines; format: cell-based, human; settings: average over the cell lines tested, MTT assay, 72 h
[5] = system: MCF-7 breast; assay: MTT growth inhibition assay, MCF-7; format: cell-based, human; settings: MTT assay, 72 h
[6] = system: SJ-G2 glioblastoma; assay: MTT growth inhibition assay, SJ-G2; format: cell-based, human; settings: 72 h
[7] = Lipophilicity by HPLC (log kw); format: physicochemical; settings: for log kw: chromatographic lipophilicity index, extrapolated to 100% d.i.H2O; for log kw (y-intercept of log k versus [CH3CN] % plot, Figure S80): linear fit
Excerpt: For lipophilicity measurements, HPLC was utilised instead of the traditional shake-flask method, as described previously. Recent studies have also reported the efficiency of HPLC in measuring the lipophilicity of compounds [79, 80]. Each complex was eluted under several isocratic ratios. A standard curve was generated to calculate the log value of the capacity factor (log k) according to Equation (1). Following Equation (2), the percentage of organic solvent (CH3CN) in the mobile phase from each isocratic run was plotted against log kw (Figure S80). Log kw is the chromatographic lipophilicity index or measure of lipophilicity of the complex, so a higher value corresponds to greater lipophilicity. Because the selected axial ligands in this study contain F, Cl, Br, and I, it was only appropriate to determine the influence of the halogens on the overall lipophilicity of the platinum(IV) complexes. […] Conversely, the least lipophilic complex was the phen derivative containing 4-FPA, 3, with a log kw of 0.25. Furthermore, for the phen derivatives, the order of increasing lipophilicity was 3 > 1 > 5 > 7, which corresponds to the order of increasing size of the halogens, F > Cl > Br > I. This pattern was also observed with the 5,6-Me2phen derivatives (4 > 2 > 6 > 8), thereby confirming that the halogens increased the order of lipophilicity accordingly based on their size.
For lipophilicity measurements, analytical HPLC was utilised. Elution profiles were acquired on an Agilent (Melbourne, VIC, Australia) Technologies 1260 Infinity instrument equipped with a Phenomenex Onyx^TM Monolithic C18-reverse phase column (100 × 4.6 mm, 5 µm pore size) (Sydney, NSW, Australia). The mobile phase consisted of solvents, A (0.06% TFA in d.i.H2O) and B (0.06% TFA in CH3CN/d.i.H2O (90:10)). Potassium iodide was used as an external dead volume marker to determine the dead time of the column. Retention times (TR) were measured at varying isocratic ratios ranging from 30 to 36% of solvent B at 1 mL·min^−1 mL. An injection volume of 10 µL was utilised. Capacity factors were determined according to Equation (1):(1) k=(TR−T0)/T0 where k is the capacity factor, TR is the retention time of the analyte, and T0 represents the dead time. A minimum of four different mobile compositions were used for each complex to calculate k. A linear plot was generated of log k against the concentration of CH3CN in the mobile phase to determine the value of log kw expressed by Equation (2):(2) logk=Sφ+logkw where S is the slope, φ is the concentration of the CH3CN in the mobile phase, and log kw represents the capacity factor of the complex in 100% d.i.H2O. Extrapolation of this linear plot to the y-intercept indicates the log kw value.

[8] = system: A2780 ovarian; assay: MTT growth inhibition assay, A2780; format: cell-based, human; settings: 72 h
[9] = system: HT29 colon cells; assay: ROS detection assay (DCFH-DA); format: cell-based, human; settings: HT29 colon cells, treated at GI50 concentration (TBHP positive control 20 μM)
Excerpt: Although ROS is required for cancer cell function and progression, it can induce programmed cell death or apoptosis. […] In this study, we report the ROS activity of the studied platinum(IV) complexes, 1–8, together with the individual axial ligands (4-CPA, 4-FPA, 4-BPA, and 4-IPA) in the human cancer cell line, HT29 colon (Figure 19, Table 8, and Figure S95). The ROS potential of their platinum(II) and platinum(IV) precursors in the same cell line is also presented for comparison purposes (Table 8). […] HT29 colon cells were stained by DCFH-DA and then treated with the complexes at each specific GI50 concentration. Upon ROS production, the DCFH-DA produced dichlorodihydrofluorescein, a fluorescent product. The measured fluorescence was, therefore, proportional to the produced ROS.
To investigate the presence of ROS in treated cells, a DCFDA/H2DCFDA-cellular ROS Assay Kit (Abcam, Cambridge, MA, USA) was used, as previously described. A total of 25,000 cells/mL of HT29 cells in DMEM were seeded in 96-well plates. Cells were washed with 1X kit buffer, and then stained with 25 μM 2′,7′-dichlorofluorescein diacetate (DCFH-DA) and incubated for 45 min. DCFH-DA was then removed, and cells were then re-washed with 1X kit buffer, after which phenol red free media was added. Cells were then treated with a GI50 drug concentration for each complex. The plates were directly scanned to measure fluorescence (relative fluorescence units (RFU)) at different time points using the Glo-Max®-Multimode microplate reader (Promega Corporation, Alexandra, VIC, Australia) at an excitation/emission of 485/535 nm. To generate the positive control (20 μM tert-butyl hydroperoxide (TBHP)), cells were washed with 1X kit buffer, and stained with DCFDA (25 μM) for 45 min; this was removed and TBHP was added in phenol red free media, and the resulting solution was scanned as described above.

[10] = system: non-tumour derived MCF10A breast line; assay: MTT growth inhibition assay, MCF10A; format: cell-based, human; settings: 72 h
[11] = system: H460 lung; assay: MTT growth inhibition assay, H460; format: cell-based, human; settings: 72 h
[12] = system: ADDP-resistant ovarian variant; assay: MTT growth inhibition assay, ADDP; format: cell-based, human; settings: for GI50: MTT assay, 72 h
[13] = system: U87 glioblastoma; assay: MTT growth inhibition assay, U87; format: cell-based, human; settings: 72 h
[14] = system: A431 skin; assay: MTT growth inhibition assay, A431; format: cell-based, human; settings: 72 h
[15] = Reduction experiments with AsA by 1H-NMR and 1D-195Pt-NMR; format: physicochemical; settings: D2O, 37 °C; for T50% (approximate time at which 50% reduction occurs): 10 mM PBS (~7.4 pH); for extent of reduction 1 h after the final 1H-NMR experiment (1D-195Pt-NMR): regions −2800 and 400 ppm
Excerpt: Platinum(IV) complexes are reduced to their platinum(II) precursors by intracellular biological reducing agents such as AsA or GSH in tumour cells. However, the precise mechanism by which reduction occurs is not fully understood. In this paper, reduction reaction experiments were undertaken on the synthesised platinum(IV) complexes, 1–8, with the aid of ^1H-NMR and 1D-^195Pt-NMR spectroscopy. The method used for the reduction reaction experiments was adapted from the literature without modifications. A total of 10 mM PBS (~7.4 pH) was selected as media, and AsA was used as the biological reducing agent to investigate the reduction property of 1–8. Prior to the reduction reaction experiments, a control was prepared where each metal complex was dissolved with PBS in D2O. 1D-^195Pt-NMR was measured within the regions of −2800 and 400 ppm (30 min per region), at 37 °C. This was undertaken to confirm that the PBS would not interfere with the reduction process of the metal complexes. […] The approximate time points for the studied complexes at which an estimated 50% reduction had occurred, in the presence of AsA, as represented by T50%, are summarised in Table 6.
The reduction properties of 1–8 were monitored using ^1H-NMR and 1D-^195Pt-NMR spectroscopy on a 400 MHz Bruker (Melbourne, VIC, Australia) Avance Spectrometer. A sequence of ^1H-NMR experiments was carried out for 1 h at 37 °C, followed by 1D-^195Pt-NMR within the regions of −2800 and 400 ppm. An amount of 10 mM PBS (~7.4 pH) was transferred to a vial and reduced to dryness through rotary evaporation. AsA (~1 mg) was combined with the metal complex (~5 mg) and transferred to the vial containing the dried PBS. A total of 600 µL of D2O was then added to the vial to dissolve the complex, AsA, and the PBS together.

[16] = system: HT29 colon; assay: MTT growth inhibition assay, HT29; format: cell-based, human; settings: MTT assay, 72 h
[17] = Du145 prostate, ratio of GI50 values

SMILES | GI50 [1] [nM] | GI50 [2] [nM] | GI50 [3] [nM] | GI50 [4] [nM] | GI50 [5] [nM] | GI50 [6] [nM] | log kw [7] | log kw (y-intercept of log k versus [CH3CN] % plot, Figure S80) [7] | GI50 [8] [nM] | ROS production 24 h [9] [RFU] | ROS production 48 h [9] [RFU] | ROS production 72 h [9] [RFU] | GI50 [10] [nM] | GI50 [11] [nM] | GI50 [12] [nM] | GI50 [13] [nM] | GI50 [14] [nM] | T50% (approximate time at which 50% reduction occurs) ([15]; 1H-NMR) [min] | extent of reduction 1 h after the final 1H-NMR experiment (1D-195Pt-NMR) ([15]; PBS) | GI50 [16] [nM] | other results
Cc1c(C)c2c3c4c1=CC=C[N]4[Pt+2]([OH])([O]C(=O)Cc1ccc(Br)cc1)[N]3C=CC=2.N[C@H]1CCCC[C@@H]1N [Complex 6, [Pt^IV(5,6-Me2phen)(SS-DACH)(4-BPA)(OH)]^2+] | 7 ± 2 | 1 ± 0.6 | 100 ± 20 | 22 ± 4 | 21 ± 5 | 23 ± 5 | 1.07 | 1.0701 | 20 ± 3 | 496 ± 14 | 598 ± 14 | 643 ± 14 | 10 ± 2 | 10 ± 2 | 6 ± 2 | 35 ± 5 | 19 ± 0.9 | 30 | partial reduction; also recorded: traces of platinum(IV) species were still observed | 7 ± 2 | fold more potent than 56MESS [2, 17]: 4.6 fold; fold more potent than cisplatin [2, 17]: 1200 fold; fold more potent than cisplatin ([12]; ADDP-resistant ovarian variant, ratio of GI50 values): ~4700 fold
Cc1c(C)c2c3c4c1=CC=C[N]4[Pt+2]([OH])([O]C(=O)Cc1ccc(F)cc1)[N]3C=CC=2.N[C@H]1CCCC[C@@H]1N [Complex 4, [Pt^IV(5,6-Me2phen)(SS-DACH)(4-FPA)(OH)]^2+] | 5 ± 2 | 0.7 ± 0.4 | 110 ± 20 | 23 ± 4 | 23 ± 5 | 30 ± 8 | 0.80 | 0.8042 | 20 ± 4 | 579 ± 18 | 681 ± 17 | 738 ± 15 | 11 ± 3 | 10 ± 3 | 6 ± 2 | 37 ± 5 | 14 ± 2 | 20 to 25 | partial reduction | 6 ± 2 | fold more potent than 56MESS [2, 17]: ~7 fold and 6.6 fold; fold more potent than cisplatin [12]: ~4700 fold
N[C@H]1CCCC[C@@H]1N.O=C(Cc1ccc(Cl)cc1)[O][Pt+2]1([OH])[N]2C=CC=c3ccc4c(c32)[N]1C=CC=4 [Complex 1, [Pt^IV(phen)(SS-DACH)(4-CPA)(OH)]^2+] | 270 ± 42 | 140 ± 43 | 490 ± 93 | 406 ± 90 | 860 ± 180 | 420 ± 92 | 0.75 | 0.7472 | 280 ± 67 | 272 ± 9 | 368 ± 19 | 409 ± 11 | 290 ± 90 | 380 ± 81 | 290 ± 50 | 740 ± 230 | 560 ± 73 | 15 to 20 | reduced entirely to PHENSS; also recorded: complete reduction | 150 ± 64 | time at which reduction starts ([15]; PBS, 1H-NMR): 5 min; extent of reduction at 1 h (1H-NMR) ([15]; PBS, 1 h): almost entirely reduced to its platinum(II) precursor, PHENSS
N[C@H]1CCCC[C@@H]1N.O=C([O-])Cc1ccc(Br)cc1.[OH-].[Pt+4].c1cnc2c(c1)ccc1cccnc12 [Complex 5, [Pt^IV(phen)(SS-DACH)(4-BPA)(OH)]^2+] | 200 ± 20 | 110 ± 11 | 960 ± 120 | 457 ± 70 | 850 ± 240 | 350 ± 20 | 0.87 | 0.8765 | 380 ± 50 | 281 ± 16 | 399 ± 12 | 478 ± 9 | 320 ± 20 | 320 ± 20 | 250 ± 20 | 1100 ± 230 | 450 ± 10 | 15 to 20 | partial reduction | 190 ± 20 | –
